Activity calls are given as the source filed them.
How the values were obtained:
[1] = target: T1, Corticotropin-releasing factor receptor 2/Corticotropin-releasing factor-binding protein (Homo sapiens, UniProt P24387+Q13324); experiment: Dose Response confirmation of uHTS hits for small molecule antagonists of the CRF-binding protein and CRF-R2 receptor complex.; type: functional; details: read-out: IC50_Mean
T1 sequence (Q13324 whole entry): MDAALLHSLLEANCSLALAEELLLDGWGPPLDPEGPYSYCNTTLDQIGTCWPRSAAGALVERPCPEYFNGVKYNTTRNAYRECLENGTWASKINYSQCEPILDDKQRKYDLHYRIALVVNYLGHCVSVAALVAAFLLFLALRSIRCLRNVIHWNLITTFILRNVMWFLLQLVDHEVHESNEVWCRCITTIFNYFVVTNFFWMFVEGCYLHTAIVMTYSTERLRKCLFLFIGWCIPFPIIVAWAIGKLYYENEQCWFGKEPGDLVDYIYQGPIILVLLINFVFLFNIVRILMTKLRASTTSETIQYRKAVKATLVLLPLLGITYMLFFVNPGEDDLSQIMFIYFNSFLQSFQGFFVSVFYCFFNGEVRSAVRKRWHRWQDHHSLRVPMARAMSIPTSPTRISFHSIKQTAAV
T1 sequence (P24387 whole entry): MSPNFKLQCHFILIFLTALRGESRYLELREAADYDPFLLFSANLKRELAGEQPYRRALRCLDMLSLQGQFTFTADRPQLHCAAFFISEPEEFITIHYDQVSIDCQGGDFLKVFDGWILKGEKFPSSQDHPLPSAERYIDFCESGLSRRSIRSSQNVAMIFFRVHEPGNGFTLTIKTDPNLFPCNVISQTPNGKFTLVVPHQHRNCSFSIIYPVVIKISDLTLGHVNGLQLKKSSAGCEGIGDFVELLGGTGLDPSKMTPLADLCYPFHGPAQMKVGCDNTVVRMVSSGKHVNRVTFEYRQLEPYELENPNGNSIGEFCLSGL

[2] = target: T1, Corticotropin-releasing factor receptor 2/Corticotropin-releasing factor-binding protein; experiment: activators of CRF receptor 2 with binding protein – uHTS hits, confirmation (AID 602473); type: functional; details: read-out: EC50_Mean
Large T antigen = Large T antigen (Simian virus 40, UniProt P03070); type: functional, Betapolyomavirus macacae;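 note: Confirmatory-stage PubChem screen for compounds that inhibit SV40 T antigen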
[3] = Luminescence Cell-Based Dose Retest to Confirm Inhibitors of Cancer Stem Cells. [Related pubchem assays (depositor defined):AID2717, AID2721]; type: functional; details: Homo sapiens
[4] = Luminescence Cell-Based Dose Response HTS to Identify Activators of Luciferase Translation or Activity in H4 […] Cells. [Related pubchem assays: 1829 (Project Summary), 1814 (Primary HTS)]; type: functional
[5] = Luminescence Cell-Based Dose Confirmation HTS to Identify Activators of 5'UTR Stem-Loop Driven Alpha-Synuclein mRNA Translation in H4 Neuroglioblastoma Cells. [Related pubchem assays: 1829 (Project Summary), 1814 (Primary HTS)]; type: functional
H4 = experiment: Luminescence Cell-Based Dose Response HTS to Identify Activators of 5'UTR Stem-Loop Driven Prion Protein mRNA Translation in H4 Neuroglioblastoma Cells. [Related pubchem assays: 1829 (Project Summary), 1814 (Primary HTS)]; type: functional; details: Homo sapiens
[6] = viability of HCT116 lacking mutant beta-catenin – cell-based, human colon tumor, dose response (AID 1045); type: functional;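 note: HCT116 colon tumor cells with beta catenin knocked out; cells exposed to compound for 60 hours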
[7] = target: T2, Heat shock factor protein 1 (Mus musculus, UniProt P38532); experiment: decrease of HSF1-responsive luciferase luminescence – cell-based, NIH3T3, dose retest, confirmation (AID 2382); type: functional;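 note: NIH3T3 fibroblasts with HSF1-driven luciferase reporter stressed by proteasome inhibitor MG132; luminescence from HSF1-driven luciferase expression after 8 hours of MG132 stress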
T2 sequence (P38532 whole entry): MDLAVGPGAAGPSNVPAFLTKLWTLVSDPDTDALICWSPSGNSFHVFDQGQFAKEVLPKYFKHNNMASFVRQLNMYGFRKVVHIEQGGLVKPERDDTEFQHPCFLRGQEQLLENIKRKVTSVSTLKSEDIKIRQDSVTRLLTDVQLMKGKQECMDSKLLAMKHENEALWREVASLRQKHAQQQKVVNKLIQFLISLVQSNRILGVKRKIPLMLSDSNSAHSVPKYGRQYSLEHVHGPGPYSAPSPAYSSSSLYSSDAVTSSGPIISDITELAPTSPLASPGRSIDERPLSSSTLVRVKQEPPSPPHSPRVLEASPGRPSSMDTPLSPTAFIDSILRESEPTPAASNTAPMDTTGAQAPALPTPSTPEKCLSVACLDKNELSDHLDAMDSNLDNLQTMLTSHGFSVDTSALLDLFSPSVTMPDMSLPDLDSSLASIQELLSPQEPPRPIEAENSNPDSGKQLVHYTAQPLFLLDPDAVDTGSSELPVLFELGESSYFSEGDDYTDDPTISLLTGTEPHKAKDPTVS

[8] = viability of PTEN-deleted HCT116 cells – cell-based, HCT116 PTEN knockout, dose response (AID 1047); type: functional;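 note: HCT116 colon tumor cells with PTEN knocked out; cells exposed to compound for 60 hours before readout; potency for loss of cell viability measured by luminescence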
[9] = target: T3, Rac GTPase-activating protein 1 (Homo sapiens, UniProt Q9H0H5); experiment: blockers of MgcRacGAP-driven Rac1 GTP hydrolysis – biochemical, ADP Hunter fluorescence, primary and confirmatory, confirmation (AID 624330); type: functional
T3 sequence (Q9H0H5 whole entry): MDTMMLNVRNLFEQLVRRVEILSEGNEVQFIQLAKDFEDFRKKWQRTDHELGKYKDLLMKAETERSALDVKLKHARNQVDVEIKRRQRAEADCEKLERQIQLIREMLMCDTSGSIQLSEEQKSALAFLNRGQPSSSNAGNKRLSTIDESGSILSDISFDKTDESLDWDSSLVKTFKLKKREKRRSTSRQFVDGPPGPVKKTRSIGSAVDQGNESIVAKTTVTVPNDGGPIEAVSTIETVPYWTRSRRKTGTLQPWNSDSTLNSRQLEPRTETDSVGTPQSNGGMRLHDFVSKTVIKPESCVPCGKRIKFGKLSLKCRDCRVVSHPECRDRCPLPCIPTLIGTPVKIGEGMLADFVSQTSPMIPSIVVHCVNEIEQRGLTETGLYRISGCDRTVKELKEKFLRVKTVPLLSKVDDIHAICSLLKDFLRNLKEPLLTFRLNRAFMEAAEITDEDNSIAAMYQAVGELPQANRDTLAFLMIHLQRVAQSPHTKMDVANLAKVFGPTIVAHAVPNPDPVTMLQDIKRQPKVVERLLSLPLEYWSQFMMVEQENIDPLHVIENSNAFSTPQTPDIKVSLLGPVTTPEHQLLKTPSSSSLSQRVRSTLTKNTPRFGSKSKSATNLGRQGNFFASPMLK

[10] = Luminescence Cell-Based Dose Response HTS to Identify Inhibitors of 5'UTR Stem-Loop Driven Prion Protein mRNA Translation in H4 Neuroglioblastoma Cells. [Related pubchem assays: 1827 (Project Summary), 1813 (Primary HTS)]; type: functional
[11] = luciferase reporter signal suppression in cells – H4 neuroglioma cells, luminescence, dose response (AID 1990); type: functional, cell-based
[12] = alpha-synuclein stem-loop luciferase translation blockers – H4 neuroglioma cells, luminescence, confirmation (AID 1988); type: functional, cell-based
Cytochrome P450 2C9 = Cytochrome P450 2C9 (Homo sapiens, UniProt P11712)
Cytochrome P450 1A2 = target: T4, Cytochrome P450 1A2 (Homo sapiens, UniProt P05177);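 note: PubChem cytochrome P450 panel assay, CYP1A2 panel member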
T4 sequence (P05177 whole entry): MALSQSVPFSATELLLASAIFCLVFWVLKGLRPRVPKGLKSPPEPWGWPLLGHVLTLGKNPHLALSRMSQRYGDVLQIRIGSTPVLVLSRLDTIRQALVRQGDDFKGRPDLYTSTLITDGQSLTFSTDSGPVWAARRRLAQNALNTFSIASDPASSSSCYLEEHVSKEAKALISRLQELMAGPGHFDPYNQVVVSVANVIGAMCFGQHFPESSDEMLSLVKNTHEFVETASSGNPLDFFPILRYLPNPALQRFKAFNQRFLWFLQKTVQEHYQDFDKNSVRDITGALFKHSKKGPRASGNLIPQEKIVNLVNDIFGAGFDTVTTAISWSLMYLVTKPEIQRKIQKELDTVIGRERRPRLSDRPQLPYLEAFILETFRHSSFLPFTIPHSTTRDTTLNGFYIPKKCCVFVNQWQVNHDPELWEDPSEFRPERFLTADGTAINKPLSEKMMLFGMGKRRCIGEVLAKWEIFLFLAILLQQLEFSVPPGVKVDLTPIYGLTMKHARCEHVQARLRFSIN

Large T antigen, sequence (P03070 whole entry): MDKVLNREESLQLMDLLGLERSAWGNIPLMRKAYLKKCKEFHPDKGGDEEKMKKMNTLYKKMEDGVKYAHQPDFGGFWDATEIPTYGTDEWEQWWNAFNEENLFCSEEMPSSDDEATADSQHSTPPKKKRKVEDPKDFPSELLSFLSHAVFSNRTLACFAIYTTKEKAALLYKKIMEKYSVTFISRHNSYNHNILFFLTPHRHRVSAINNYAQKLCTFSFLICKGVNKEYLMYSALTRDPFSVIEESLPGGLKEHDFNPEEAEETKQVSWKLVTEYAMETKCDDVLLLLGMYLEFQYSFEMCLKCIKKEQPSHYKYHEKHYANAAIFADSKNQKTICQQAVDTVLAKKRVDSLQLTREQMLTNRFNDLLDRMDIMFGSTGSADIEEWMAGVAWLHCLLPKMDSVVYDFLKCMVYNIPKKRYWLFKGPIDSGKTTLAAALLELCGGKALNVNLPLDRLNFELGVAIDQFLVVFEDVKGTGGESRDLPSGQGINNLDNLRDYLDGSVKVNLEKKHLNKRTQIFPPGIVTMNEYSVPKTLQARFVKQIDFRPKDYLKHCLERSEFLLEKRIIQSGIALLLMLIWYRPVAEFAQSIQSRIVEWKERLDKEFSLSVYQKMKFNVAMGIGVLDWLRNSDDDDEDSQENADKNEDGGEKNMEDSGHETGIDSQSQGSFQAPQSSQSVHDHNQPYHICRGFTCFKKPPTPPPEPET
Cytochrome P450 2C9, sequence (P11712 whole entry): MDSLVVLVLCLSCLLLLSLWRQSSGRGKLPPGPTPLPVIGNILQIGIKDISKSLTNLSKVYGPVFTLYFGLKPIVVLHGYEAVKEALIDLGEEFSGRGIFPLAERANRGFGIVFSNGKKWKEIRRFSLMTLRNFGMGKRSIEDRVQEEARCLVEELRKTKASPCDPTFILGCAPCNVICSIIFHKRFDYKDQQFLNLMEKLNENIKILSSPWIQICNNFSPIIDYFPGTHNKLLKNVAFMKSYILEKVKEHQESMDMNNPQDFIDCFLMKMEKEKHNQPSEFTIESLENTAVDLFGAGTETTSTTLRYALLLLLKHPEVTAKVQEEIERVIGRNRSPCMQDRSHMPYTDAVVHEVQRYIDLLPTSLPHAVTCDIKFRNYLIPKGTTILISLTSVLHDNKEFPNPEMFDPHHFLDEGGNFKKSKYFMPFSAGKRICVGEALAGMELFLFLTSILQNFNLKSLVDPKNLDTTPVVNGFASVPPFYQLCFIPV

SMILES	AC50 [3]	EC50 [6]	EC50 [8]	further results
C=CCOc1cccc(CNc2ccc3[nH]c(O)nc3c2)c1	–	–	–	IC50 [1]: > 47.1 µM (inactive); EC50 [2]: > 53 µM (inactive); IC50 (Large T antigen): 14.4 µM (active)
COC(=O)C1=C(c2cccc(C#N)c2)C[C@@H]2CC[C@H]1N2C(=O)NC1Cc2ccccc2C1	> 195 µM (inactive)	–	–	–
CCCc1ccc(-c2cc(NC(=O)CSc3n[nH]c(N)n3)n(-c3ccccc3)n2)cc1	4.18 µM (active)	–	–	EC50 [4]: 6.51 µM (active); EC50 [5]: 7.46 µM (active); EC50 (H4): 53.5 µM (active)
Cc1cccc2sc(NNC(=O)C3COc4ccccc4O3)nc12 (configuration not stated)	–	36.7 µM (active)	38.9 µM (active)	EC50 [7]: > 195 µM (not active)
O=c1c(Cl)c(NCc2ccccc2Cl)cnn1C12CC3CC(CC(C3)C1)C2	0.508 µM (active)	–	–	–
Oc1ccc(N2CCN(C(=S)NCCc3ccccc3)CC2)cc1	–	–	–	IC50 [9]: 26.1 µM (active); IC50 (Large T antigen): 8.73 µM (active)
COc1ccc(N2C(=O)/C(=C\NNS(=O)(=O)c3ccc(C)cc3)c3ccccc3C2=O)cc1OC	–	–	40.4 µM (active)	EC50 [2]: > 53 µM (inactive)
COc1cc(SC#N)ccc1/N=C/c1c(C)nn(-c2cccc3ccccc23)c1O	–	93.7 µM (active)	–	IC50 (Large T antigen): 14.1 µM (active)
COc1ccc(C2=Nn3c(nnc3-c3ccncc3)SC2)cc1OC	–	336 µM (active)	19.7 µM (active)	EC50 [10]: 14.2 µM (active); EC50 [11]: 12.4 µM (active); EC50 [12]: 50.8 µM (active)
CN(C)c1ccc(/C=N/c2ccc(N(C)C)cc2)cc1	–	524 µM (active)	28.5 µM (active)	–
Cc1cc(NC(=O)c2cc(-c3ccncc3)nc3ccccc23)ccc1Br	4.23 µM (active)	–	–	–
Cc1ccc(CNc2ccc3c(c2)ncn3C(C)C)cc1	–	–	–	IC50 (Large T antigen): 42.6 µM (active)
O=C(CSCc1cccc(Br)c1)N/N=C/c1ccc2c(c1)OCO2	3 µM (active)	–	–	–
CN(CC(=O)Nc1ccc(Cl)c(Cl)c1)C(=O)C12CC3CC(CC(C3)C1)C2	5.44 µM (active)	–	–	–
COc1ccccc1CN(Cc1cc2cc(C)cc(C)c2nc1O)Cc1nnnn1CC1CCCO1 (configuration not stated)	–	54.9 µM (active)	44.9 µM (active)	AC50 (Cytochrome P450 2C9): 14.1 µM (inconclusive); AC50 (Cytochrome P450 1A2): 20 µM (inconclusive)
CCc1nn2cc(C(=O)c3cc(Cl)ccc3O)cnc2c1-c1ccc(F)cc1	–	28.3 µM (active)	30.7 µM (active)	–
CCOc1ccc(-n2c(=O)c3c4c(sc3n(CC(=O)NCc3ccco3)c2=O)CCC4)cc1	–	27.7 µM (active)	30.2 µM (active)	–

Source: ChEMBL document CHEMBL1201862, “PubChem BioAssay data set” (2004)
